Laboratory results reported in US8562949B2, “Radiolabeled dihydrotetrabenazine derivatives and their use as imaging agents” (The Trustees of the University of Pennsylvania, priority 2006, dated 2013).

Assay: Metabolic stability in mouse brain
Assay type: in vivo, mice
Settings: mouse striatum, 30 minutes post-injection, ethyl acetate extraction/TLC
Protocol: Two mice were injected with 200 μCi [^18F]FP-(+)-DTBZ and sacrificed at 30 minutes post-injection. The brains were removed and the striatal regions were dissected out. The striatal homogenates (prepared in PBS, 10% w/v) were extracted with 0.5 mL of ethyl acetate in the presence of a small amount of carrier (10 μg of […]). Extraction was repeated three times and the ethyl acetate layers and the buffer layers were counted separately to determine the percent extracted. […] A control sample ([^18F]FP-(±)-DTBZ mixed with normal mouse striatal homogenates in situ) was carried out in parallel for comparison.

SMILES: COc1cc2c(cc1OCCC[18F])CCN1C[C@@H](CC(C)C)[C@H](O)C[C@H]21 [[^18F]-(+)-6b]
- degradation: less than 5%
